According to paper PMC5552880, “The Bitter Taste Receptor TAS2R16 Achieves High Specificity and Accommodates Diverse Glycoside Ligands by using a Two-faced Binding Pocket” (Scientific Reports, 2017):
“And” between values parts separate entries of the source, which are not always exact repeats. Equal values may be shown once.

Legend:
Type in all cases: cell-based
N96A TAS2R16 = target: T1, N96A TAS2R16 (Homo sapiens, UniProt Q9NYV7, N96A); experiment: Ca2+ flux assay, N96A TAS2R16 variant; conditions: Fig. 7 dose-response
T1 construct: FLAG (N); expressed in transfected cells; host or cells: HEK-293T
Method: (§1) The TAS2R16 mutation library was tested for function using a Ca^2+ flux assay as described previously. Later screens of individual TAS2R16 mutant clones used 4-nitrophenyl-β-D-glucopyranoside. Briefly, HEK-293T cells, in poly-lysine coated, black 384-well plates with clear bottoms (Costar), were transfected with the TAS2R16 mutation library, and a plasmid expressing a Gα16 chimera containing the last 44 amino acids of rat gustducin (Gα16gust44). Cells were incubated for 22 hours at 37 °C then washed twice with a calcium indicator dye in HBSS containing 20 mM HEPES (Calcium 4 Assay kit, Molecular Devices), incubated with HBSS for 1.5 hr, then moved to a Flexstation II-384 (Molecular Devices) set at 32 °C. […] Concentrations for mutation library screening were chosen to be approximately 2 to 3 times higher than the EC50 values for the ligands to maximize the sensitivity of detecting decreases in signaling due to the mutation in each clone.
(§2) For Ca^2+ flux assays, the value of fluorescence at 30 seconds after ligand addition (the time of peak signal for wild-type TAS2R16) was used as the maximum value. […] Data sets were analyzed and represented as percentage over baseline signal. Mean and standard deviation values were calculated for each clone from replicate assay data.
(§3) Ligand dose-response data was analyzed with Graphpad Prism 5 software. […]

N172K TAS2R16 = target: T2, N172K TAS2R16 (Homo sapiens, UniProt Q9NYV7, N172K); experiment: Ca2+ flux assay, mutation library clone N172K; conditions: 3 mM salicin, mean (range, max-min), n=3
T2 construct: Each construct in the mutation library was tested for full-length TAS2R16 translation; V5; expressed in transfected cells; host or cells: HEK-293T
Method: as §1, §2

R56P TAS2R16 = target: T3, R56P TAS2R16 (Homo sapiens, UniProt Q9NYV7, R56P); experiment: Ca2+ flux assay, mutation library clone R56P; conditions: 3 mM salicin, mean (range, max-min), n=3
T3 construct: FLAG (N); expressed in transfected cells; host or cells: HEK-293T
Method: as §1, §2

N96T TAS2R16 = target: T4, N96T TAS2R16 (Homo sapiens, UniProt Q9NYV7, N96T); experiment: Ca2+ flux assay, N96T TAS2R16 variant; conditions: Fig. 7 dose-response
T4 construct: FLAG (N); expressed in transfected cells; host or cells: HEK-293T
Method: as §1, §2, §3

S228T TAS2R16 = target: T5, S228T TAS2R16 (Homo sapiens, UniProt Q9NYV7, S228T); experiment: Ca2+ flux assay, mutation library clone S228T; conditions: library screening concentrations
T5 construct: FLAG (N); expressed in transfected cells; host or cells: HEK-293T
T5 sequence (Q9NYV7 1-291 S228T): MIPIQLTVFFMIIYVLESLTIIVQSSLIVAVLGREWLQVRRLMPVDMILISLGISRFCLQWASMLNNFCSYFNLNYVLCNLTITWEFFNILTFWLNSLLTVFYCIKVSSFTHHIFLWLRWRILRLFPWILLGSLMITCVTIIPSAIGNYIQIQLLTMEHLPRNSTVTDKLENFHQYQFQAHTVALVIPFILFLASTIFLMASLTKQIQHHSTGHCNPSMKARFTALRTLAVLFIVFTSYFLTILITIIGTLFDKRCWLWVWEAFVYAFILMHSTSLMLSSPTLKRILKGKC
Method: as §1
For Ca^2+ flux assays, the value of fluorescence at 30 seconds after ligand addition (the time of peak signal for wild-type TAS2R16) was used as the maximum value. […] Raw data obtained from surface expression and flux experiments were normalized to the values for wild-type TAS2R16 on each plate. Data sets were analyzed and represented as percentage over baseline signal. Mean and standard deviation values were calculated for each clone from replicate assay data.

I21F TAS2R16 = target: T6, I21F TAS2R16 (Homo sapiens, UniProt Q9NYV7, I21F); experiment: Ca2+ flux assay, mutation library clone I21F; conditions: 3 mM salicin, mean (range, max-min), n=3
T6 construct: FLAG (N); expressed in transfected cells; host or cells: HEK-293T
Method: as §1, §2

T2 sequence (Q9NYV7 whole entry N172K): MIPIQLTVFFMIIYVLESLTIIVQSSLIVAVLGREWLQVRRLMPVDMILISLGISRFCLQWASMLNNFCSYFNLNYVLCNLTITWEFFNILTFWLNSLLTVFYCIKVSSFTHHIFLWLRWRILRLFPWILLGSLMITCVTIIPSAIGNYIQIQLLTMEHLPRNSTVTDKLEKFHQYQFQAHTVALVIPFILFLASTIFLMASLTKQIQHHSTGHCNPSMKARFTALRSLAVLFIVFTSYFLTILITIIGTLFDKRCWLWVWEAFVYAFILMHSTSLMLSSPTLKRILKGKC
T1 sequence (Q9NYV7 whole entry N96A): as the sequence (Q9NYV7 whole entry N172K) above, with N96A, K172N counted along it
T4 sequence (Q9NYV7 whole entry N96T): as the sequence (Q9NYV7 whole entry N172K) above, with N96T, K172N counted along it
T6 sequence (Q9NYV7 whole entry I21F): as the sequence (Q9NYV7 whole entry N172K) above, with I21F, K172N counted along it
T3 sequence (Q9NYV7 whole entry R56P): as the sequence (Q9NYV7 whole entry N172K) above, with R56P, K172N counted along it

EC50 (N96A TAS2R16): 6.5 mM
Ca2+ flux in response to salicin (R56P TAS2R16): 2 (1) % of wild-type
EC50 (N96T TAS2R16): 0.8 mM
Ca2+ flux signaling value (S228T TAS2R16): 90 % of wild-type
Ca2+ flux in response to salicin (I21F TAS2R16): 9 (5) % of wild-type
Compound: OCc1ccccc1O[C@@H]1O[C@H](CO)[C@@H](O)[C@H](O)[C@H]1O [salicin]
Ca2+ flux in response to salicin (N172K TAS2R16): 83 (13) % of wild-type and 83 % of wild-type
